# In ChEMBL document CHEMBL5029180, “Design and synthesis of an oral prodrug alalevonadifloxacin for the treatment of MRSA infection” (Bioorg Med Chem Lett, 2021):
# Assays:
# [1] = Aqueous solubility of compound at pH 7; type: physicochemical
# [2] = Prodrug activation in human intestinal S9 fraction assessed as S-(-)-nadifloxacin release measured after 90 mins by LC-MS/MS analysis; type: subcellular, Intestine; conditions: s9, 1.5 h
# [3] = Prodrug activation in human whole blood assessed as S-(-)-nadifloxacin release measured after 30 to 60 mins by LC-MS/MS analysis; type: tissue-based; conditions: time 30-60 min
# [4] = Prodrug activation in human liver S9 fraction assessed as S-(-)-nadifloxacin release measured after 30 to 60 mins by LC-MS/MS analysis; type: subcellular; conditions: time 30-60 min
solubility [1],Drug metabolism [2],Drug metabolism [3],Drug metabolism [4],Compound
> 200 mg/mL,–,–,–,CC(C)[C@H](N)C(=O)OC1CCN(c2c(F)cc3c(=O)c(C(=O)O)cn4c3c2CC[C@@H]4C)CC1
< 1 mg/mL,–,–,–,C[C@H]1CCc2c(N3CCC(O)CC3)c(F)cc3c(=O)c(C(=O)O)cn1c23.N=C(N)NCCC[C@H](N)C(=O)O.O.O.O.O
< 1 mg/mL,Metabolite_Detected,Metabolite_Detected,Metabolite_Detected,CS(=O)(=O)O.C[C@H](N)C(=O)OC1CCN(c2c(F)cc3c(=O)c(C(=O)O)cn4c3c2CC[C@@H]4C)CC1
> 200 mg/mL,–,–,–,CC(C)[C@H](N)C(=O)OC1CCN(c2c(F)cc3c(=O)c(C(=O)O)cn4c3c2CC[C@@H]4C)CC1.CS(=O)(=O)O
